≈ marks a conversion by molar mass, not a printed value.
details: buffer; pH 7.4; 200.0 µM

Row | SMILES | solubility kinetic [µg/mL]
1 | Oc1ccc(Br)cc1C1Nc2ccccc2S1 (configuration not stated) | < 0.7
2 | CC(=O)Nc1ccccc1OCc1cnc(Cl)s1 | > 42.4
3 | O=C(CNC(=O)c1cccc(F)c1)N/N=C/c1cccs1 | > 45.8
4 | Cc1ccccc1N1C(=O)C2C3CCC(O3)C2C1=O (configuration not stated) | > 38.6
5 | CSc1ncccc1C(=O)Nc1nc(C(C)(C)C)cs1 | 37.6 (≈ 122 µM)
6 | Cc1ccc(C(=O)NCCCNC(=O)c2cccnc2)cc1 | > 44.6
7 | CC(NC(=O)CCC(=O)NC(C)c1ccccc1)c1ccccc1 (configuration not stated) | 46.2 (≈ 142 µM)
8 | CCN(CC)C(=O)c1cc(Cl)ccc1NC(=O)c1ccco1 | > 48.1
9 | CC(C)c1cc(C(C)C)c(S(=O)(=O)N2CCNCC2)c(C(C)C)c1 | 39.3 (≈ 111 µM)
10 | COc1ccc(NC(=O)c2cccnn2)cc1 | > 34.4
11 | O=C(COC(=O)Cc1ccc(Cl)cc1)Nc1ccccc1F | 20.8 (≈ 64.6 µM)
12 | Cc1cccc(NS(=O)(=O)c2ccc3[nH]c(=O)[nH]c3c2)c1C | 5 (≈ 15.8 µM)
13 | O=C(NCc1ccco1)C1CCCN1C(=O)Nc1ccccc1 (configuration not stated) | 43.5 (≈ 139 µM)
14 | Cc1cc(C)cc(OCc2ccc(C(=O)NC3CCOC3=O)o2)c1 (configuration not stated) | > 49.4
15 | c1ccc(CNCCc2c[nH]c3ccccc23)cc1 | 37.2 (≈ 149 µM)
16 | O=C1NC(c2ccc(Cl)cc2)=COc2ccccc21 | 1.1 (≈ 4.05 µM)
17 | O=C(COC(=O)c1cc[n+]([O-])cc1)NCc1ccccc1Cl | > 48.1
18 | O=C(NCCc1ccc(F)cc1)Nc1ccc([N+](=O)[O-])cc1 | 4.9 (≈ 16.2 µM)
19 | Cn1cc(/C=C2\C(=O)NC(=O)N(c3ccccc3)C2=O)c2ccccc21 | 1.6 (≈ 4.63 µM)
20 | O=C(c1ccc(S(=O)(=O)Nc2ccccc2F)cc1)N1CCN(c2ccccn2)CC1 | > 66.1
21 | O=C(Cc1c(F)cccc1Cl)NCCN1CCOCC1 | > 45.1
22 | COc1cccc2cc(C(=O)NC3CC4CCC3C4)oc12 (configuration not stated) | 31.6 (≈ 111 µM)
23 | COc1ccc(/C=N/NC(=O)c2cccnc2)cc1CN1CCOCC1 | > 53.2
24 | CC(C)S(=O)(=O)c1csc(NC(=O)Nc2ccc(Cl)cc2)c1Cl | < 0.4

Row | SMILES | solubility kinetic [µg/mL]
25 | NC(=O)C1CCCN1S(=O)(=O)c1ccc2ccccc2c1 (configuration not stated) | > 45.7
26 | CC(C)CNc1nc(N)c([N+](=O)[O-])c(N2CCCCCC2)n1 | 4.5 (≈ 14.6 µM)
27 | CC(C)c1ccccc1NC(=S)N(C)C | > 33.4
28 | O=C(O)CSc1ccc(S(=O)(=O)N2CCCC2)cn1 | > 45.4
29 | NC(=O)c1cc(S(=O)(=O)NCCc2ccccc2)cs1 | 40.3 (≈ 130 µM)
30 | CSCCNCc1c(C(=O)N2CCOCC2)nc2c(C)cccn12 | 46.1 (≈ 132 µM)
31 | O=C(NCCNCc1cccs1)c1ccccc1F | 37.6 (≈ 135 µM)
32 | COc1cc([N+](=O)[O-])ccc1NC(=O)Nc1cnccn1 | 0.8 (≈ 2.77 µM)
33 | Cc1ccc(C(=O)Nc2c(C)cc(-c3ccccc3)oc2=O)cc1 | < 0.7
34 | O=C(CCCCl)NC(=S)Nc1ccc(N2CCOCC2)cc1 | 11.4 (≈ 33.3 µM)
35 | Cc1ccccc1NS(=O)(=O)c1csc(C(N)=O)c1 | > 44.5
36 | CC1CN(C(=S)NC2CCCC2)CC(C)O1 (configuration not stated) | > 36.4
37 | O=C(NCCNc1ccc([N+](=O)[O-])cc1)c1ccccc1F | 3.8 (≈ 12.5 µM)
38 | Cc1cc(C)cc(NC(=O)C2CCCN(c3ncccn3)C2)c1 (configuration not stated) | 0.5 (≈ 1.61 µM)
39 | Cc1ccc(NC(=O)N[C@@H](CC(C)C)C(=O)O)c(C)c1 | > 41.8
40 | CC(C)(C)c1ccc(-c2noc(CCC(=O)N3CCOCC3)n2)cc1 | 44.2 (≈ 129 µM)
41 | COc1ccc(/C=C2\C(=O)NC(=S)N(C)C2=O)cc1C | > 43.6
42 | Cn1c(SCC(=O)NC2CC2)nnc1-c1ccccc1 | > 43.3
43 | COc1cccc(N2CCN(C(=O)c3cc4cc(Cl)ccc4[nH]3)CC2)c1 | 11.8 (≈ 31.9 µM)
44 | O=C(Cc1c(F)cccc1Cl)NCCc1c[nH]c2ccccc12 | 4.8 (≈ 14.5 µM)
45 | Cc1ccc(S(=O)(=O)N2CCC(C(=O)NCC3CCCCC3)CC2)cc1 | 1.6 (≈ 4.23 µM)
46 | Cc1cc(C(C)(C)C)cc(C)c1CCNC(=O)c1ccc[n+]([O-])c1 | > 49
47 | Nc1nc2c(Cl)ccc(Cl)c2s1 | 3.2 (≈ 14.6 µM)

From PubChem BioAssay AID1996
